Data set [1] addresses T1, KDM5B (Homo sapiens, UniProt Q9UGL1).
T1 construct: purified recombinant KDM5B (produced in Sf9 insect cells, M1-R822); made in house; host or cells: Sf9 insect cells
T1 sequence (Q9UGL1 1-822): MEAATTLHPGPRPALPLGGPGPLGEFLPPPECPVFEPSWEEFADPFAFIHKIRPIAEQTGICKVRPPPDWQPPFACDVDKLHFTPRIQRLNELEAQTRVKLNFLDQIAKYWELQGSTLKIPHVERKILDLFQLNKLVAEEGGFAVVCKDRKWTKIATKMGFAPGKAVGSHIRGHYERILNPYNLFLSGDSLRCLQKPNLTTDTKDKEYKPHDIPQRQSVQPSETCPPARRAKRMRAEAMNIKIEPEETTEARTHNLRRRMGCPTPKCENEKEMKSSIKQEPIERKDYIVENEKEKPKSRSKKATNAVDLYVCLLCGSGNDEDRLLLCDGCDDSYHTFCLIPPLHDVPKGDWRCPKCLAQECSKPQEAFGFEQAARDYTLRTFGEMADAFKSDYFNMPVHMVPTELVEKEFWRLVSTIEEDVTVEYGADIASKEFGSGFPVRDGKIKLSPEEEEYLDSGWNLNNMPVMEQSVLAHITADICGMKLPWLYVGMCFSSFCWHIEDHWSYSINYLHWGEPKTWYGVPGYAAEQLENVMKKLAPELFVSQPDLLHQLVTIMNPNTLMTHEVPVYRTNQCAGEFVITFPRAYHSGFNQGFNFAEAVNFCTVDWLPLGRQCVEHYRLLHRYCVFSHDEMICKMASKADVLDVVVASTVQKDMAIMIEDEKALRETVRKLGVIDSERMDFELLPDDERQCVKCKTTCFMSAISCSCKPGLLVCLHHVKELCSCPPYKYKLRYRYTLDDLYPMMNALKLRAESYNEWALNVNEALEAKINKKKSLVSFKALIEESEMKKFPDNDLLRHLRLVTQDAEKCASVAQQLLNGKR
As to the kind of experiment: KDM5B inhibition assay, MALDI-TOF-MS (IC50). It counts as biochemical.

Data set [2] concerns T2, over-expressed KDM5B in U2-OS cells.
T2 construct: expressed in transfected cells; host or cells: U2-OS osteosarcoma cells, transient transfection with pCDNA5-FRT-TO-3FLAG vector
Description: Immunofluorescence assay of H3K4me3 demethylation in U2-OS cells overexpressing KDM5B. In kind it is cell-based, human. The following applies: for inhibition of KDM5B-mediated H3K4me3 demethylation (IF): U2-OS cells overexpressing Flag-tagged WT KDM5B, 24 h treatment, esters dosed up to 5–10 mM. As for the experimental part:
EC50 curves for cells overexpressing Flag-tagged KDM5B. […] Results for dimethyl-2OG (a), dimethyl-succinate (b), dimethyl-D-2HG (c), dimethyl-L-2HG (d), octyl-D-2HG (e), octyl-L-2HG (f), and KDOAM-25 (g). Dashed lines represent IF levels in non-inhibitor controls.
The cellular effects of dimethyl ester precursors of TCA cycle-related metabolites as potential inhibitors of H3K4me3 demethylation were then assessed. We used an established immunofluorescence (IF) procedure with ectopically overexpressed wild-type KDM5B (WT KDM5B) in U2-OS cells and anti-H3K4me3 antibody monitoring for changes in H3K4me3 methylation levels. […] Cells with overexpressed KDM5B were treated with different concentrations of the TCA cycle-related pro-drug esters (previously established as cell permeable in other cell-based studies), [51], [52], [53], [54] for 24 h, the H3K4me3 levels were then analyzed in the transfected cells. The reported KDM5B inhibitor KDOAM-25 ((2)-((((2)-(((2)-(dimethylamino)ethyl)(ethyl)amino)-(2)-oxoethyl)amino)methyl)isonicotinamide) was used as a positive control for inhibition, [55].
Immunofluorescent cell-based assays were performed as reported. The human U2-OS osteosarcoma cells were cultured as a monolayer in Dulbecco's modified Eagle's medium (Invitrogen) supplemented with 10% heat-inactivated fetal bovine serum (Life Technologies) and 1% Glutamax. […] Cells were transiently transfected using cDNA and Lipofectamine 3000 (Life Technologies). Four hours after transfection, the cells were subjected to treatment with serial dilutions of compound. After 24 h, the cells were fixed with 4% formaldehyde and stained with anti-Flag antibody (Sigma F3165), an anti-methylated histone antibody (H3K4me3 DiagenodeC15410003). The cells were then stained with secondary antibodies [Alexa Fluor 488 and Alexa Fluor 568-labeled (Life Technologies)] and 4’,6-diamidino-2-phenylindole. Image acquisition was conducted using Operetta High Content Imaging System (PerkinElmer), and image analysis was performed using the Columbus software (PerkinElmer). A minimum threshold for anti-Flag intensity was set to ensure that only cells highly producing the demethylase were analyzed.

For data set [3], the system named is U2-OS cells. As to the kind of experiment: Toxicity to U2-OS cells in the cellular assay. It counts as cell-based, human. The following applies: data not shown.
In data set [4] the test system is KDM4E. The following applies: cited from earlier work; for IC50: enzyme concentration 2 μM.
Data set [5] concerns PHD2. Conditions: cited from earlier work.
The test system of data set [6] is FIH. Conditions: cited from earlier work.
In data set [7] the test system is TET1. The following applies: cited from earlier work.
Data set [8] has as its system TET2. Conditions: cited from earlier work.
The test system of data set [9] is KDM2A. On the set-up: method as in PMID 21460794. The following applies: cited from earlier work; for IC50: enzyme concentration 2 μM.
The subject of data set [10] is BBOX. Conditions: cited from earlier work; for IC50: enzyme concentration 0.025 μM.
Data set [11] has as its target T1, KDM5B. As to the kind of experiment: KDM5B kinetic assays, MALDI-TOF-MS (Km, Ki with respect to 2OG). It counts as biochemical. The following applies: for mode of inhibition: with respect to 2OG.
Data set [12] concerns isolated KDM5B. Set-up: method as in PMID 28262558. The following applies: AlphaScreen assay; cited from earlier work. For orientation: In Alpha technology, singlet oxygen from a donor bead excites a nearby acceptor bead.
Data set [13] has as its target T1, KDM5B. Conditions: FDH-coupled assay, truncated KDM5B, cited from earlier work.
Data set [14] concerns KDM4A. On the set-up: method as in PMID 21460794. Conditions: read-out: Km^app(2OG); cited from earlier work.
Data set [15] concerns KDM4C. On the set-up: method as in PMID 21460794. The following applies: read-out: Km^app(2OG); cited from earlier work.
Data set [16] has as its system ABH2. On the set-up: method as in PMID 21460794. The following applies: read-out: Km^app(2OG); cited from earlier work.
Setting [17] is: 0.6 μM KDM5B, 3 μM 2OG, 5 μM H3K4me2(1–21), 10 μM Fe(II), 500 μM L-ascorbate, pH 7.5, errors 95% confidence intervals.

Entries after “also recorded” stand apart in the source; their conditions may differ. Like-named read-outs stand apart in the source and are kept apart here.

The IC50 is the concentration that gives 50% inhibition. One may read the inhibition as the percentage by which the read-out fell short of the control. The Ki is a measure of affinity in units of concentration, obtained from inhibition or displacement. A word on the Km: it is the concentration of substrate that gives half-maximal velocity.

On to `O=C(O)CC(O)(CC(=O)O)C(=O)O` [Citrate], for which the IC50 entry in data set [1] (setting [17]) is “Inactive”; in [1] (read-out: IC50) it was greater than 1000 µM. In addition, the inhibition at 1000 µM in data set [1] (read-out: inhibition at 1 mM) amounted to 18%.
Consider `COC(=O)/C=C/C(=O)OC` [dimethylfumarate], for which the “inhibition of KDM5B-mediated H3K4me3 demethylation (IF)” value (shortened to “inhibition … (IF)”) in data set [2] is “no inhibition of KDM5B activity was observed”; in [2] (listed as Dimethylfumarate), “did not show any inhibition at lower concentrations”. Besides, the toxic concentration entry in [3] is recorded as “higher than 400 μM”.
With `CCCCCCCCOC(=O)[C@H](O)CCC(=O)O` [octyl-D-2HG], in data set [2], the “inhibition … (IF)” value is listed as “do not inhibit; also recorded: no inhibition of KDM5B activity was observed”.
For `O=C(O)/C=C/C(=O)O` [Fumarate], the concentration for half-maximal inhibition (IC50) in [1] was 210 ± 80 µM; in data set [4] it was 2.3 µM; in data set [5] it was 3 µM; in data set [6] it was greater than 1000 µM; in data set [7] it was 390 ± 160 µM; in data set [8], 400 ± 70 µM.
Turning to `COC(=O)CCC(=O)C(=O)OC` [dimethyl-2OG, Dimethyl-2-oxoglutarate], the “inhibition … (IF)” value in data set [2] is on record as “do not inhibit; also recorded: no inhibition of KDM5B activity was observed”. In addition, the “change in H3K4me3 levels / KDM5B activity in response to compound” value in [2] (U2-OS cells overexpressing KDM5B, increasing concentrations, 24 h) is “No decrease in the H3K4me3 levels was observed; also recorded: did not show any effect”.
As for `CC(=O)C(=O)O` [Pyruvate, pyruvate], the IC50 entry in [1] (setting [17]) is “very weak KDM5B inhibitor”; in [1] (read-out: IC50) it was 703 ± 26 µM.
As for `O=C(O)CC[C@@H](O)C(=O)O` [D-2HG, D-2-hydroxyglutarate], the IC50 was 106 ± 22 µM in [9], 13200 µM in data set [10] and 5000 µM in data set [8].
Consider `O=C(O)CCC(=O)O` [Succinate, succinate], for which the IC50 is 62 ± 19 µM in data set [1] (read-out: IC50); 320 µM in data set [4]; 19 µM in [5]; greater than 1000 µM in data set [6]; 540 ± 100 µM in data set [7]; 570 ± 190 µM in [8]. In addition, the Ki in data set [11] (competitive inhibition model, shared/global fit, read-out: Ki (best-fit value, GraphPad Prism global fit)) amounted to 26.8 µM. Moreover, the “Vm^app” value in data set [11] (in presence of 30 μM succinate) amounted to 0.0044 µM/s; in data set [11] (in presence of 100 μM succinate), 0.0046 µM/s; in [11] (in presence of 300 μM succinate) it was 0.0046 µM/s. The mode of inhibition in data set [11] was found to be 2OG competitive manner.
On to `COC(=O)CCC(=O)OC` [dimethyl-succinate, dimethylsuccinate], for which the “inhibition … (IF)” value in [2] was “do not inhibit”.
As for `O=C(O)CC(=O)C(=O)O` [Oxaloacetate], the IC50 in data set [1] (read-out: IC50) came out at 15 ± 10 µM. For the same compound, the “Vm^app” value was 0.0066 µM/s in data set [11] (in presence of 15 μM oxaloacetate), 0.0070 µM/s in data set [11] (in presence of 50 μM oxaloacetate) and 0.0069 µM/s in [11] (in presence of 100 μM oxaloacetate). The mode of inhibition in data set [11] was determined as 2OG competitive manner.
In the case of `CCN(CCN(C)C)C(=O)CNCc1cc(C(N)=O)ccn1` [KDOAM-25, (2)-((((2)-(((2)-(dimethylamino)ethyl)(ethyl)amino)-(2)-oxoethyl)amino)methyl)isonicotinamide], the “inhibition … (IF)” value in data set [2] is “manifested the expected levels of inhibition; also recorded: observe inhibition”. Further, in data set [2] (U2-OS cells overexpressing WT KDM5B, 24 h), the “compound concentration at which H3K4me3 fluorescence reaches levels of KDM5B Mut” value is 1 mM. The IC50 in data set [12] is 0.019 µM.
For the compound “H3K4me2(1–21): 21-mer histone H3 peptide fragment dimethylated at lysine-4, KDM5B substrate [reference compound]”, the Km in data set [11] (KDM5B(1–822), 10 μM 2OG, read-out: Km^app(H3K4me2(1–21))) was roughly 0.5 µM; in [13] (read-out: Km^app for H3K4me2(1–21)), 0.85 µM.
Turning to `CCCCCCCCOC(=O)[C@@H](O)CCC(=O)O` [octyl-L-2HG], in data set [2], the “inhibition … (IF)” value is “do not inhibit; also recorded: no inhibition of KDM5B activity was observed”.
In the case of `O=C(O)CC(O)C(=O)O` (centres unmarked) [Malate, malate], the IC50 in [1] (read-out: IC50) turned out to be 127 ± 72 µM.
In the case of `O=C(O)CC[C@H](O)C(=O)O` [L-2HG, L-2-hydroxyglutarate], the IC50 is 48 ± 15 µM in data set [9]; 189 ± 34 µM in data set [6] (enzyme concentration 1 μM); 142 ± 30 µM in data set [10]; 1000 µM in data set [7]; 1600 µM in [8].
Take `COC(=O)CC[C@H](O)C(=O)OC` [dimethyl-L-2HG]: the “inhibition … (IF)” value in data set [2] is recorded as “do not inhibit; also recorded: no inhibition of KDM5B activity was observed”.
For the compound `COC(=O)CC[C@@H](O)C(=O)OC` [dimethyl-D-2HG], the “inhibition … (IF)” value in [2] is recorded as “do not inhibit; also recorded: no inhibition of KDM5B activity was observed”.
For `O=C(O)CCC(=O)C(=O)O` [2OG, 2-oxoglutarate], the Km in data set [13] (read-out: Km^app(2OG)) was 6 µM; in data set [14], 6 µM; in data set [15], 4 µM; in data set [4] (read-out: Km^app(2OG)), 13.2 µM; in data set [9] (read-out: Km^app(2OG)), 12.5 µM; in data set [5] (read-out: Km^app(2OG)), 13 ± 2 µM. In addition, the Km in [6] (read-out: Km^app(2OG)) is 110 ± 20 µM; in data set [10] (read-out: Km^app(2OG)), 470 µM; in [16], 10 µM; in [7] (read-out: Km^app(2OG)), 55 ± 20 µM; in data set [8] (read-out: Km^app(2OG)), 60 ± 15 µM.

These data come from article PMC5636616, “Studies on the Interaction of the Histone Demethylase KDM5B with Tricarboxylic Acid Cycle Intermediates” (Journal of Molecular Biology, 2017).
